Laboratory results taken from patent publication EP0093484A2, “Antibacterial monic acid derivatives” (BEECHAM GROUP PLC, priority 1982, dated 1983).
Values after ≈ are worked out from the molar mass of the structure shown.

Tests used:
M. suipneumoniae NB12 = experiment: Anti-mycoplasmal activity, MIC in Friis broth agarose; format: cell-based; conditions: Mesomycoplasma hyopneumoniae, 144 h, Friis broth solidified with 0.9% agarose, 6 days incubation at 37°C, read-out: MIC
Ps. aeruginosa 10662 = experiment: Human bacteria, MIC by serial dilution in nutrient agar; format: cell-based; conditions: Pseudomonas aeruginosa, nutrient agar with 5% chocolated horse blood, 18 hours at 37°C, read-out: MIC
Strep. agalactiae SPA1 = experiment: Veterinary bacteria, MIC by two fold serial dilution in agar; conditions: Streptococcus agalactiae, SPA1, 18 h
Protocol: (§1) The activity of the compounds of the Examples against various organisms important in veterinary infections was determined using two fold serial dilutions in Diagnostic Sensitivity Test Agar inoculated with 10^4 organisms.

M. dispar NCTC 10125 = experiment: Anti-mycoplasmal activity, MIC in Friis broth agarose; format: cell-based; conditions: 144 h, Friis broth solidified with 0.9% agarose, 6 days incubation at 37°C, read-out: MIC
P. mirabilis 889 = experiment: Human bacteria, MIC by serial dilution in nutrient agar; format: cell-based; conditions: Proteus mirabilis, nutrient agar with 5% chocolated horse blood, 18 hours at 37°C, read-out: MIC
Past. multocida PA2 = experiment: Veterinary bacteria, MIC by two fold serial dilution in agar; conditions: Pasteurella multocida, PA2, 18 h
Protocol: as §1

E. coli E1 = experiment: as above; conditions: Escherichia coli, E1, 18 h
Protocol: as §1

[1] = system: Corynebacterium xerosis 9755; experiment: Human bacteria, MIC by serial dilution in nutrient agar; format: cell-based; conditions: nutrient agar with 5% chocolated horse blood, 18 hours at 37°C, read-out: MIC
[2] = system: Haemophilus influenzae Q1; experiment: as above; format: cell-based; conditions: nutrient agar with 5% chocolated horse blood, 18 hours at 37°C, read-out: MIC
S. dublin S7 = experiment: Veterinary bacteria, MIC by two fold serial dilution in agar; conditions: Salmonella enterica, S7, 18 h
Protocol: as §1

[3] = system: Haemophilus influenzae Wy21; experiment: Human bacteria, MIC by serial dilution in nutrient agar; format: cell-based; conditions: nutrient agar with 5% chocolated horse blood, 18 hours at 37°C, read-out: MIC
[4] = system: M. suipneumoniae NCTC 10110; experiment: Anti-mycoplasmal activity, MIC in Friis broth agarose; format: cell-based; conditions: Mesomycoplasma hyopneumoniae, NCTC10110, 144 h, Friis broth solidified with 0.9% agarose, 6 days incubation at 37°C, read-out: MIC
M. suipneumoniae TAM 6N = experiment: as above; format: cell-based; conditions: Mesomycoplasma hyopneumoniae, TAM6N, 144 h, Friis broth solidified with 0.9% agarose, 6 days incubation at 37°C, read-out: MIC
E. coli NCTC 10418 = experiment: Human bacteria, MIC by serial dilution in nutrient agar; format: cell-based; conditions: Escherichia coli, NCTC10418; E. coli NCTC 10418 (human panel); nutrient agar with 5% chocolated horse blood; 18 hours at 37°C; read-out: MIC
M. hyorhinis ATCC 23234 = experiment: Anti-mycoplasmal activity, MIC in Friis broth agarose; format: cell-based; conditions: Mesomycoplasma hyorhinis, ATCC23234, 144 h, Friis broth solidified with 0.9% agarose, 6 days incubation at 37°C, read-out: MIC
M. suipneumoniae JF 435 = experiment: as above; format: cell-based; conditions: Mesomycoplasma hyopneumoniae, JF435, 144 h, Friis broth solidified with 0.9% agarose, 6 days incubation at 37°C, read-out: MIC
Strep. dysgalactiae SPD1 = experiment: Veterinary bacteria, MIC by two fold serial dilution in agar; conditions: Streptococcus dysgalactiae, SPD1, 18 h
Protocol: as §1

Staph. aureus W2827 = experiment: Human bacteria, MIC by serial dilution in nutrient agar; format: cell-based; conditions: Staphylococcus aureus, nutrient agar with 5% chocolated horse blood, 18 hours at 37°C, read-out: MIC
Bacillus subtilis 6633 = experiment: as above; format: cell-based; conditions: nutrient agar with 5% chocolated horse blood, 18 hours at 37°C, read-out: MIC
S. typhimurium S18 = experiment: Veterinary bacteria, MIC by two fold serial dilution in agar; conditions: Salmonella enterica, TYPHIMURIUM, 18 h
Protocol: as §1

Staph. aureus Russell = experiment: Human bacteria, MIC by serial dilution in nutrient agar; format: cell-based; conditions: Staphylococcus aureus, nutrient agar with 5% chocolated horse blood, 18 hours at 37°C, read-out: MIC
M. suipneumoniae HK(2) = experiment: Anti-mycoplasmal activity, MIC in Friis broth agarose; format: cell-based; conditions: Mesomycoplasma hyopneumoniae, 144 h, Friis broth solidified with 0.9% agarose, 6 days incubation at 37°C, read-out: MIC
Bord. bronchiseptica B08 = experiment: Veterinary bacteria, MIC by two fold serial dilution in agar; conditions: Bordetella bronchiseptica, B08, 18 h
Protocol: as §1

M. gallisepticum S6 = experiment: Anti-mycoplasmal activity, MIC in Friis broth agarose; format: cell-based; conditions: Mycoplasmoides gallisepticum, 144 h, Friis broth solidified with 0.9% agarose, 6 days incubation at 37°C, read-out: MIC
E. coli ESS = experiment: Human bacteria, MIC by serial dilution in nutrient agar; format: cell-based; conditions: Escherichia coli, nutrient agar with 5% chocolated horse blood, 18 hours at 37°C, read-out: MIC
Strep. faecalis I = experiment: as above; format: cell-based; conditions: Enterococcus faecalis, nutrient agar with 5% chocolated horse blood, 18 hours at 37°C, read-out: MIC
[5] = system: M. suipneumoniae ATCC 25095; experiment: Anti-mycoplasmal activity, MIC in Friis broth agarose; format: cell-based; conditions: Mesomycoplasma hyopneumoniae, ATCC25095, 144 h, Friis broth solidified with 0.9% agarose, 6 days incubation at 37°C, read-out: MIC
Sarcina lutea 8340 = experiment: Human bacteria, MIC by serial dilution in nutrient agar; format: cell-based; conditions: Micrococcus luteus, nutrient agar with 5% chocolated horse blood, 18 hours at 37°C, read-out: MIC
Strep. agalactiae 2788-B = experiment: as above; format: cell-based; conditions: Streptococcus agalactiae, nutrient agar with 5% chocolated horse blood, 18 hours at 37°C, read-out: MIC
[6] = system: Staph. aureus 152 (pen. sens.); experiment: Veterinary bacteria, MIC by two fold serial dilution in agar; conditions: Staphylococcus aureus, 18 h
Protocol: as §1

Staph. aureus Oxford [7] = experiment: as above; conditions: Staphylococcus aureus, 18 h
Protocol: as §1

M. suipneumoniae MS16 = experiment: Anti-mycoplasmal activity, MIC in Friis broth agarose; format: cell-based; conditions: Mesomycoplasma hyopneumoniae, 144 h, Friis broth solidified with 0.9% agarose, 6 days incubation at 37°C, read-out: MIC
[8] = system: Strep. suis (group D) SPS11; experiment: Veterinary bacteria, MIC by two fold serial dilution in agar; conditions: Streptococcus suis, 18 h
Protocol: as §1

M. bovis NCTC 10131 = experiment: microbe, parasite or virus in culture; format: cell-based; conditions: NCTC10131, 144 h
Staph. aureus Oxford [9] = experiment: Human bacteria, MIC by serial dilution in nutrient agar; format: cell-based; conditions: Staphylococcus aureus; Staph. aureus Oxford (human panel); nutrient agar with 5% chocolated horse blood; 18 hours at 37°C; read-out: MIC
[10] = system: Erysipelothrix rhusiopathiae NCTC 8163; experiment: Veterinary bacteria, MIC by two fold serial dilution in agar; conditions: Erysipelothrix rhusiopathiae, NCTC8163, 18 h
Protocol: as §1

[11] = system: M. suipneumoniae J2206/183b; experiment: Anti-mycoplasmal activity, MIC in Friis broth agarose; format: cell-based; conditions: Mesomycoplasma hyopneumoniae, 144 h, Friis broth solidified with 0.9% agarose, 6 days incubation at 37°C, read-out: MIC
K. aerogenes A = experiment: Human bacteria, MIC by serial dilution in nutrient agar; format: cell-based; conditions: Klebsiella aerogenes, nutrient agar with 5% chocolated horse blood, 18 hours at 37°C, read-out: MIC
[12] = system: Strep. pyogenes R80/421-A; experiment: as above; format: cell-based; conditions: Streptococcus pyogenes, nutrient agar with 5% chocolated horse blood, 18 hours at 37°C, read-out: MIC
Strep. spp. 64/848-C = experiment: as above; format: cell-based; conditions: nutrient agar with 5% chocolated horse blood, 18 hours at 37°C, read-out: MIC

## CC(=CC(=O)OCc1cccc([S+](C)[O-])c1)CC1OCC(CC2OC2C(C)C(C)O)C(O)C1O (stereo not shown) [Example 6, m-Methylsulfinylbenzyl monate A]
M. suipneumoniae NB12
  MIC: 5 mg/L (≈ 10.1 µM)
Ps. aeruginosa 10662
  MIC: > 100 mg/L
Strep. agalactiae SPA1
  MIC: 20 mg/L (≈ 40.3 µM)
M. dispar NCTC 10125
  MIC: 2.5 mg/L (≈ 5.03 µM)
P. mirabilis 889
  MIC: > 100 mg/L
Past. multocida PA2
  MIC: 20 mg/L (≈ 40.3 µM)
E. coli E1
  MIC: > 80 mg/L
[1]
  MIC: > 100 mg/L
[2]
  MIC: 2.5 mg/L (≈ 5.03 µM)
S. dublin S7
  MIC: > 80 mg/L
[3]
  MIC: 2.5 mg/L (≈ 5.03 µM)
[4]
  MIC: 10 mg/L (≈ 20.1 µM)
M. suipneumoniae TAM 6N
  MIC: 10 mg/L (≈ 20.1 µM)
E. coli NCTC 10418
  MIC: > 100 mg/L
M. hyorhinis ATCC 23234
  MIC: 5 mg/L (≈ 10.1 µM)
M. suipneumoniae JF 435
  MIC: 10 mg/L (≈ 20.1 µM)
Strep. dysgalactiae SPD1
  MIC: 20 mg/L (≈ 40.3 µM)
Staph. aureus W2827
  MIC: 12.5 mg/L (≈ 25.2 µM)
Bacillus subtilis 6633
  MIC: 12.5 mg/L (≈ 25.2 µM)
S. typhimurium S18
  MIC: > 80 mg/L
Staph. aureus Russell
  MIC: 12.5 mg/L (≈ 25.2 µM)
M. suipneumoniae HK(2)
  MIC: 10 mg/L (≈ 20.1 µM)
Bord. bronchiseptica B08
  MIC: > 80 mg/L
M. gallisepticum S6
  MIC: > 10 mg/L
E. coli ESS
  MIC: 25 mg/L (≈ 50.3 µM)
Strep. faecalis I
  MIC: > 100 mg/L
[5]
  MIC: 5 mg/L (≈ 10.1 µM)
Sarcina lutea 8340
  MIC: > 100 mg/L
Strep. agalactiae 2788-B
  MIC: 25 mg/L (≈ 50.3 µM)
[6]
  MIC: 5 mg/L (≈ 10.1 µM)
Staph. aureus Oxford [7]
  MIC: 5 mg/L (≈ 10.1 µM)
M. suipneumoniae MS16
  MIC: 5 mg/L (≈ 10.1 µM)
[8]
  MIC: > 80 mg/L
M. bovis NCTC 10131
  MIC: 0.25 mg/L (≈ 0.503 µM)
Staph. aureus Oxford [9]
  MIC: 2.5 mg/L (≈ 5.03 µM)
[10]
  MIC: > 80 mg/L
[11]
  MIC: 10 mg/L (≈ 20.1 µM)
K. aerogenes A
  MIC: > 100 mg/L

## CC(=CC(=O)OC(C)c1ccc(S(C)(=O)=O)cc1)CC1OCC(CC2OC2C(C)C(C)O)C(O)C1O (stereo not shown) [Example 9, 1-(p-Methylsulfonylphenyl)ethyl monate A]
M. suipneumoniae NB12
  MIC: 1 mg/L (≈ 1.9 µM)
Ps. aeruginosa 10662
  MIC: > 128 mg/L
Strep. agalactiae SPA1
  MIC: 80 mg/L (≈ 152 µM)
M. dispar NCTC 10125
  MIC: 0.05 mg/L (≈ 0.0949 µM)
P. mirabilis 889
  MIC: > 128 mg/L
Past. multocida PA2
  MIC: 2.5 mg/L (≈ 4.75 µM)
E. coli E1
  MIC: > 80 mg/L
[1]
  MIC: > 128 mg/L
S. dublin S7
  MIC: > 80 mg/L
[3]
  MIC: 0.5 mg/L (≈ 0.949 µM)
[4]
  MIC: 1 mg/L (≈ 1.9 µM)
M. suipneumoniae TAM 6N
  MIC: 1 mg/L (≈ 1.9 µM)
E. coli NCTC 10418
  MIC: > 128 mg/L
M. hyorhinis ATCC 23234
  MIC: 0.5 mg/L (≈ 0.949 µM)
[12]
  MIC: 1 mg/L (≈ 1.9 µM)
M. suipneumoniae JF 435
  MIC: 1 mg/L (≈ 1.9 µM)
Strep. dysgalactiae SPD1
  MIC: 0.625 mg/L (≈ 1.19 µM)
Staph. aureus W2827
  MIC: 16 mg/L (≈ 30.4 µM)
Bacillus subtilis 6633
  MIC: 1 mg/L (≈ 1.9 µM)
S. typhimurium S18
  MIC: > 80 mg/L
Staph. aureus Russell
  MIC: 16 mg/L (≈ 30.4 µM)
M. suipneumoniae HK(2)
  MIC: 1 mg/L (≈ 1.9 µM)
Bord. bronchiseptica B08
  MIC: > 80 mg/L
M. gallisepticum S6
  MIC: 10 mg/L (≈ 19 µM)
E. coli ESS
  MIC: 4 mg/L (≈ 7.6 µM)
Strep. faecalis I
  MIC: > 128 mg/L
[5]
  MIC: 0.5 mg/L (≈ 0.949 µM)
Strep. spp. 64/848-C
  MIC: 4 mg/L (≈ 7.6 µM)
Strep. agalactiae 2788-B
  MIC: 8 mg/L (≈ 15.2 µM)
[6]
  MIC: 5 mg/L (≈ 9.49 µM)
Staph. aureus Oxford [7]
  MIC: 10 mg/L (≈ 19 µM)
M. suipneumoniae MS16
  MIC: 0.5 mg/L (≈ 0.949 µM)
[8]
  MIC: 40 mg/L (≈ 76 µM)
M. bovis NCTC 10131
  MIC: < 0.01 mg/L
Staph. aureus Oxford [9]
  MIC: 4 mg/L (≈ 7.6 µM)
[10]
  MIC: 80 mg/L (≈ 152 µM)
[11]
  MIC: 1 mg/L (≈ 1.9 µM)
K. aerogenes A
  MIC: > 128 mg/L
